Experimental data: a melting point compilation (Tetko et al.; mined from patent text by program, amines drawn as free bases though some values may be those of a salt)

Row | SMILES | melting point [°C]
1 | CN(C)CCCOc1ccc(-c2nn(CC(=O)OCc3ccccc3)c3ncccc23)cc1 | 90 to 92
2 | COc1cc(-c2ncc(C(F)(F)F)cc2Cl)c(F)cc1Cl | 105 to 106
3 | CN1CC(NC(=S)NC(=O)c2ccccc2)CC2c3cccc4[nH]cc(c34)CC21 (centres undefined) | 224 to 225
4 | COc1ccc(C(O)CN2CCN(C(c3ccccc3)c3ccccc3)CC2)cc1OC (centres undefined) | 85
5 | C#CCc1c(C)nc2c(OCc3ccncc3C)cccn12 | 156 to 157
6 | CC(C)c1[nH]n(-c2c(Cl)cc(Cl)cc2Cl)c2nc(Cc3ccc(NC(=O)N4CCN(C)CC4)cc3)nc(=O)c1-2 | 251 to 253
7 | COc1ccc(C(C#N)=C(C)C)cc1OC | 93 to 95
8 | CCOC(=O)c1cc2c(cn1)[nH]c1ccc(Br)cc12 | 308 to 313
9 | COc1ccc(C(=O)Nc2ccccc2)cc1NCc1cccc(C)c1 | 184 to 185
10 | O=Cc1cc(Br)ccc1C(=O)O | 202
11 | O=C1c2ccccc2C(=O)N1CC1CC1c1cccc2nscc12 (centres undefined) | 148 to 151
12 | Cc1oc2cc(C3CC(=O)OC(=O)C3)ccc2c1C | 145 to 147
13 | CCCc1nc2c(ccc3[nH]c4cnc(C(=O)OC(C)C)c(C)c4c32)o1 | 223 to 224
14 | CCCC1(C)C(C#N)C(=O)NC(=O)C1C#N (centres undefined) | 204 to 205
15 | FC1(F)Oc2cccc(-c3n[nH]cc3I)c2O1 | 142
16 | COC(=O)c1cccc(-c2ccc(OC)c3c2CC(C)(C)O3)c1 | 89 to 91
17 | COCCCNc1nc(N)c(C(=O)c2ccccc2[N+](=O)[O-])s1 | 170 to 172
18 | CCOC(=O)C=Cc1c(N)nc(C)c(NC(C)=O)c1C | 204 to 205
19 | Cn1cc(C2=C(c3cn(CCCS)c4ccccc34)C(=O)NC2=O)c2ccccc21 | 155 to 157
20 | CCCc1c(OCCCOc2cc(O)c(-c3ccc(F)cc3)cc2CC)cccc1C(=O)c1ccccc1C(=O)O | 50 to 52
21 | CCc1cccc(CC)c1NC(=O)N(CC1CCCCC1)C1CCC(c2ccccc2)CC1 (centres undefined) | 166 to 168
22 | Clc1ccc(Nc2ccc(Br)cn2)cc1 | 112 to 116
23 | CC1CN(c2ccc(Cl)cc2)N=C1NCC(F)(F)F (centres undefined) | 84 to 86
24 | Cc1cc(CCc2ccc(-c3ccc(C(F)(F)F)cc3)cc2)ccc1OCC(=O)O | 174 to 176
25 | Cc1cc(Oc2c(Cl)cc(C(F)(F)F)cc2Cl)nn1C(=O)NCC1CCCO1 (centres undefined) | 74 to 76

Row | SMILES | melting point [°C]
26 | O=c1[nH]c2cc(Cl)ccc2c(O)c1-c1ccc(Br)cc1 | > 350
27 | O=C(Nc1ccc2nc(CN3CCCC3)ccc2c1)c1ccc(-c2ccc(Cl)cc2)cc1 | 200 to 202
28 | Cc1cnn(-c2cc(N)c(Cl)cc2Cl)c(=O)c1Br | 211
29 | Cc1cc2c(cc1C=O)C(C)(C)CCC2(C)C | 82.4 to 84.1
30 | CN(C)CCCN(C)C(=O)C(Cc1ccccc1)NC(=O)c1cc2cc(Cl)ccc2[nH]1 (centres undefined) | 187 to 190
31 | CC(OC(=O)c1ccc(C(=O)O)cc1)c1ccc2c(c1)C(C)(C)CCC2(C)C (single isomer, unassigned; (-)) | 138
32 | COCCOc1ccc(COC(=O)NS(=O)(=O)NCC2CC2)c(Oc2ncc(C(F)(F)F)cc2Cl)c1 | 150
33 | O=C(Nc1cccc(F)c1)C12CC3CC(CC(C3)C1)C2 | 174 to 177
34 | CCn1cc2c(n1)c(=O)[nH]c1ccccc12 | > 250
35 | COc1ccc(S(=O)(=O)N(CC(=O)NO)Cc2ccccc2)cc1 | 112 to 114
36 | Cc1c(-c2ccccc2)[nH]c(=O)n1C1CCN(Cc2cccc(C(F)(F)F)c2)CC1 | 243
37 | C#CCN1CCCc2ccc(OC(=O)Nc3ccccc3C)cc21 | 96
38 | COc1ccc2c(c1OC(C)=O)NC(O)C1CCCN1C2=O (centres undefined) | 144 to 146
39 | CC(C)NOP(=O)(O)C(C(C)C)N(CC(=O)OCCCl)C(=O)C(F)(F)F (centres undefined) | 87.5 to 89
40 | CSCS[C@H](C)[C@](O)(Cn1cncn1)c1ccc(Cl)cc1 | 163 to 164
41 | COC(=O)c1nc2cc(C(F)(F)F)ccc2c(O)c1C(=O)OC | 210
42 | O=C(O)c1ccccc1Sc1ccc(F)cc1[N+](=O)[O-] | 167 to 168
43 | N#Cc1ccc(C(=O)c2ccc(OC3OC(CO)C(O)C(O)C3O)cc2)cc1 (centres undefined) | 122
44 | COC(=O)c1ccnc(Nc2ccc(SC)cc2)c1 | 142
45 | CCOC(=O)c1cc(Br)c(C(=O)OCC)cc1Cl | 125
46 | CCOC(=O)C(Cc1ccc(S(C)=O)cc1)(NC(C)=O)C(=O)OCC (centres undefined) | 135 to 136
47 | O=c1ccn(-c2cc3[nH]c(=O)c(=O)[nH]c3cc2F)cc1 | > 300
48 | CCCCCCCC(=O)c1ccc(CCO)cc1 | 47.4
49 | CN(Cc1ccc(NC(=O)C2=Cc3cc(-c4ccc(C#N)cc4)ccc3S(=O)(=O)CC2)cc1)C1CCOCC1 | 233 to 236
50 | CC(=O)C1CCC2C3CCC4CCCCC4(C)C3CCC12C (centres undefined) | 84 to 90

Row | SMILES | melting point [°C]
51 | CCN(CC)C(=O)Cn1c(-c2ccc(C(F)(F)F)cc2)nc2cccnc21 | 140 to 142
52 | O=C(O)c1ccccc1NCCCN1c2ccccc2CCc2ccccc21 | 170 to 172
53 | CC(=O)OC1CSC(Oc2cccc(-c3ccc(Cl)nc3)c2)C(OC(C)=O)C1OC(C)=O (centres undefined) | 129
54 | CCc1nc(/C=C/c2cn(-c3ccccc3)nc2OCc2ccc(OCc3nc(-c4ccc(CC(=O)O)cc4)oc3C)c(OC)c2)c(C)s1 | 198 to 199
55 | COc1ccc(Cl)cc1C(=O)NCCc1ccc(Br)c(S(N)(=O)=O)c1 | 190
56 | N#Cc1c(N2CCc3ccccc3CC2)nc(CO)[nH]c1=O | 196 to 198
57 | CCOP(=S)(OCC)Oc1cc(C(=O)OC)sc1C(=O)OC | 50
58 | O=C1CC(c2cccc([N+](=O)[O-])c2)=Nc2ccc(C#Cc3ccccc3)cc2N1 | 228 to 229
59 | Cc1ccccc1C=C1CCc2c1nc1ccc(C(=O)O)cn1c2=O | 300 to 302
60 | CCOC(=O)CC(NC(=O)C=CS(=O)c1ccccc1)C(=O)OCC (centres undefined) | 121 to 123
61 | CC(NC(=O)C(C)(Cc1ccccc1)NC(=O)OC(c1ccc(F)cc1)C(C)C)c1ccccc1 (centres undefined) | 154
62 | c1ccc2[nH]c(C34CC5CC(CC(C5)C3)C4)cc2c1 | 48
63 | CCOC(=O)c1cccc(-c2ccc3c(c2)C(O)CCC3)c1 (centres undefined) | 88 to 100
64 | CC(=O)C1CCC2C3CCC4CC(O)C(O)CC4(C)C3C(=O)CC12C (centres undefined) | 194 to 198
65 | O=C1c2cccc3cc([N+](=O)[O-])cc(c23)C(=O)N1O | 277 to 279
66 | CC(Oc1cc2sc(NC(=O)CCCN3CCCC3)nc2cc1F)c1c(Cl)ccc(F)c1Cl (centres undefined) | 153 to 157
67 | CC(=O)c1c(Br)[nH]c(-c2ccncc2)c1C | 205 to 206
68 | CCNC(=O)c1ccc(Nc2nc(OCC3CCCCC3)c3nc[nH]c3n2)cc1 | 156 to 158
69 | CC1(C)C2CC[C@]1(C)C(=O)C(C(=O)Nc1ccc(Cl)c(C(F)(F)F)c1)C2=O (some centres undefined) | 118 to 120
70 | Cc1c(CNc2cc(CO)cc(CO)c2)nnn1Cc1ccc(Cl)c(Cl)c1 | 120
71 | O=C(O)Cc1ccc2c(c1)CC(=O)c1ccccc1C2 | 163 to 165
72 | C[C@H]1CCCN(CCCOc2ccc(-c3nc4cccnc4c(=O)n3C)cc2)C1 | 83.5 to 88.5
73 | O=C(O)c1cccc(-c2cccc(Oc3ccc(Cl)c(Cl)c3)n2)c1 | 230 to 231
74 | NS(=O)(=O)c1ccc2nc(C(F)(F)F)[nH]c(=O)c2c1 | 311 to 314
75 | O=C(NNc1ccccc1)C1CSC(c2cccnc2)N1 (centres undefined) | 155

Row | SMILES | melting point [°C]
76 | O=C1OC(CN2CCC(O)(c3ccc(F)cc3)CC2)CN1c1ccc(F)cc1 (centres undefined) | 145 to 147
77 | CCn1nc(-c2ccccc2)c(C(C)=O)c(Nc2cc(C)no2)c1=O | 178 to 179
78 | Fc1ccc(C(CCCN2CCC(c3nn(-c4ccccc4)c4cc(F)ccc34)CC2)c2ccc(F)cc2)cc1 | 113 to 115
79 | COc1c(N2CC(C)C(N)C(C)C2)c(F)cc2c(=O)c(C(=O)O)cn(C3CC3)c12 (centres undefined) | 178 to 180
80 | O=C(Nc1ccncc1)c1ccc(-n2nc(C(F)(F)F)cc2C(F)(F)F)cc1 | 234 to 235
81 | COc1ncccc1Nc1c(NC(NC(=O)c2ccc(Cl)cc2)C(C)(C)C)c(=O)c1=O (centres undefined) | 239 to 241
82 | CCONC(=O)c1cc(-c2ncc(C(F)(F)F)cc2Cl)ccc1Cl | 162 to 163
83 | NCCCNc1nc2c(NCc3ccccc3)ncnc2n1C1OC(CO)C(O)C1O (centres undefined) | 72 to 76
84 | O=C(c1ccc(O)cc1)c1ccc(OCCO)cc1 | 146 to 147
85 | COCc1c2c(c(COC)n1-c1ccccc1)C(C)(C(N)=O)CC2(C)C (centres undefined) | 168 to 170
86 | COc1ccccc1[C@@]1(O)[C@H](O)CC(c2ccccc2)(c2ccccc2)[C@@H]2CN(C(=O)Cc3cn(C)c4ccccc34)C[C@@H]21 (racemic) | 240
87 | COC(=O)c1c(C)c(OC)cc(O[Si](C)(C)C(C)(C)C(C)C)c1C=O | 69 to 70
88 | CCc1oc2ccccc2c1C(=O)c1ccc(OCCOS(=O)(=O)c2ccc(C)cc2)cc1 | 95 to 98
89 | CN1CCN(C2c3ccccc3-c3[nH]c(=O)c(=O)[nH]c32)CC1 (centres undefined) | 263 to 265
90 | CCN1CC2CCCC2C1=C[N+](=O)[O-] (centres undefined) | 86
91 | Cc1c(N2C[C@H](CF)[C@](C)(N)C2)c(F)cc2c(=O)c(C(=O)O)cn([C@@H]3C[C@@H]3F)c12 | 135 to 137
92 | CC(=O)N(C)c1cccc(-c2ccnc3c(C(=O)c4ccco4)cnn23)c1 | 210 to 212
93 | CCOCc1nc2c(N)nc(C)c(C)c2n1CCCCNS(C)(=O)=O | 165 to 167
94 | CC(C)(C)C(NC(=O)c1ccc(Cl)cc1)Nc1c(Nc2cccnc2Cl)c(=O)c1=O (centres undefined) | 259 to 261
95 | CSc1c(Cl)nc(Cl)nc1SC#N | 143 to 144
96 | Cn1cc(-c2cc3cccnc3[nH]2)c2cc(C(=O)NCC(O)CO)ccc21 (centres undefined) | 171 to 172
97 | C1=C(c2ccccc2)CCN(Cc2cncc(-c3ccccc3)c2)C1 | 80 to 82
98 | Cc1c(CO)ncnc1N1CCCCC1 | 79 to 81
99 | CC(=O)Nc1cccc(C=O)c1 | 68 to 70
